# Assay results taken from PubChem BioAssay (NCI).
#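 Here, GI50 denotes the concentration required for 50% inhibition of growth. Definition used: TGI = concentration required for complete inhibition of growth.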
# What was measured:
# Assay in all cases: growth of human tumour cells (NCI), 384-well format
# COLO 205 colon = tested on: COLO 205 colon
# HT29 colon = tested on: HT29 colon
# HOP-92 NSCLC = tested on: HOP-92 NSCLC
# KM12 colon = tested on: KM12 colon
# T-47D breast = tested on: T-47D breast
# MCF7 breast = tested on: MCF7 breast
# TK-10 renal = tested on: TK-10 renal
# SK-OV-3 ovarian = tested on: SK-OV-3 ovarian
# MDA-MB-435 melanoma = tested on: MDA-MB-435 melanoma
# K-562 leukemia = tested on: K-562 leukemia
# OVCAR-5 ovarian = tested on: OVCAR-5 ovarian
# MDA-MB-231 breast = tested on: MDA-MB-231 breast
# SNB-19 CNS = tested on: SNB-19 CNS
# MALME-3M melanoma = tested on: MALME-3M melanoma
# CAKI-1 renal = tested on: CAKI-1 renal
# RXF 393 renal = tested on: RXF 393 renal
# U251 glioblastoma = tested on: U251 glioblastoma
# EKVX NSCLC = tested on: EKVX NSCLC
# OVCAR-4 ovarian = tested on: OVCAR-4 ovarian
# SF-295 CNS = tested on: SF-295 CNS
# SR leukemia = tested on: SR leukemia
# A549 NSCLC = tested on: A549 NSCLC
# SK-MEL-5 melanoma = tested on: SK-MEL-5 melanoma
# NCI-H23 lung = tested on: NCI-H23 lung
# SK-MEL-28 melanoma = tested on: SK-MEL-28 melanoma
# HL-60(TB) leukemia = tested on: HL-60(TB) leukemia
# ACHN renal = tested on: ACHN renal
# NCI-H226 lung = tested on: NCI-H226 lung
smiles,measurement,setting,value
Cc1cc(Oc2ccc3nc(COc4ccc(CC5SC(=O)NC5=O)cc4)n(C)c3c2)cc(C)c1N (stereo not given),GI50,COLO 205 colon,33.7 µM
same,TGI,COLO 205 colon,82.7 µM
same,GI50,HT29 colon,27.2 µM
same,TGI,HT29 colon,73.1 µM
same,GI50,HOP-92 NSCLC,23.9 µM
same,TGI,HOP-92 NSCLC,60.6 µM
same,GI50,KM12 colon,17.2 µM
same,TGI,KM12 colon,31.8 µM
same,GI50,T-47D breast,16.9 µM
same,TGI,T-47D breast,31.1 µM
same,GI50,MCF7 breast,5.45 µM
same,TGI,MCF7 breast,22 µM
same,GI50,TK-10 renal,27.4 µM
same,TGI,TK-10 renal,80.5 µM
same,GI50,SK-OV-3 ovarian,25.8 µM
same,TGI,SK-OV-3 ovarian,66.4 µM
same,GI50,MDA-MB-435 melanoma,20 µM
same,TGI,MDA-MB-435 melanoma,43.9 µM
same,GI50,K-562 leukemia,18.8 µM
same,TGI,K-562 leukemia,49.1 µM
same,GI50,OVCAR-5 ovarian,38.2 µM
same,TGI,OVCAR-5 ovarian,> 100 µM
same,GI50,MDA-MB-231 breast,30.4 µM
same,TGI,MDA-MB-231 breast,> 100 µM
same,GI50,SNB-19 CNS,42 µM
same,TGI,SNB-19 CNS,> 100 µM
same,GI50,MALME-3M melanoma,20.7 µM
same,TGI,MALME-3M melanoma,39.3 µM
same,GI50,CAKI-1 renal,29.5 µM
same,TGI,CAKI-1 renal,74.9 µM
same,GI50,RXF 393 renal,16.8 µM
same,TGI,RXF 393 renal,48.4 µM
same,GI50,U251 glioblastoma,21 µM
same,TGI,U251 glioblastoma,45.1 µM
same,GI50,EKVX NSCLC,22.6 µM
same,TGI,EKVX NSCLC,44.2 µM
same,GI50,OVCAR-4 ovarian,29.4 µM
same,TGI,OVCAR-4 ovarian,75.2 µM
same,GI50,SF-295 CNS,26.3 µM
same,TGI,SF-295 CNS,66.4 µM
same,GI50,SR leukemia,6.93 µM
same,TGI,SR leukemia,19.4 µM
same,GI50,A549 NSCLC,24.8 µM
same,TGI,A549 NSCLC,58.2 µM
same,GI50,SK-MEL-5 melanoma,18.8 µM
same,TGI,SK-MEL-5 melanoma,32.9 µM
same,GI50,NCI-H23 lung,15.6 µM
same,TGI,NCI-H23 lung,29.5 µM
same,GI50,SK-MEL-28 melanoma,23 µM
same,TGI,SK-MEL-28 melanoma,50.7 µM
same,GI50,HL-60(TB) leukemia,14 µM
same,TGI,HL-60(TB) leukemia,27.2 µM
same,GI50,ACHN renal,31.3 µM
same,TGI,ACHN renal,98.7 µM
same,GI50,NCI-H226 lung,22.6 µM
